Assay results as given in the NIST ThermoML archive (doi:10.1016/j.jct.2010.04.013).
Numbers after ± are expanded uncertainties.

Assay: mn = molality of the nth substance listed, in mol/kg
Settings: 101 kPa, Liquid; for mass density: Vibrating tube method; for speed of sound: Pulse-echo method

[Ba+2].[O-][Cl+3]([O-])([O-])[O-].[O-][Cl+3]([O-])([O-])[O-] [barium perchlorate] + CO
Settings	mass density, 283.15 K [kg/m3]	mass density, 288.15 K [kg/m3]	mass density, 293.15 K [kg/m3]	mass density, 298.15 K [kg/m3]	mass density, 303.15 K [kg/m3]	mass density, 308.15 K [kg/m3]	mass density, 313.15 K [kg/m3]	speed of sound, 298.15 K [m/s]
m1 = 0.04405	811.658 ± 0.29	806.964 ± 0.29	802.257 ± 0.29	797.534 ± 0.29	792.793 ± 0.29	788.031 ± 0.29	783.24 ± 0.29	1104.8 ± 1.1
m1 = 0.05789	815.181 ± 0.29	810.483 ± 0.29	805.768 ± 0.29	801.038 ± 0.29	796.29 ± 0.29	791.514 ± 0.29	786.709 ± 0.29	1105.8 ± 1.1
m1 = 0.07152	818.62 ± 0.29	813.919 ± 0.29	809.196 ± 0.29	804.461 ± 0.29	799.707 ± 0.29	794.928 ± 0.29	790.115 ± 0.29	1106.8 ± 1.1
m1 = 0.08565	822.272 ± 0.29	817.565 ± 0.29	812.834 ± 0.29	808.092 ± 0.29	803.33 ± 0.29	798.541 ± 0.29	793.738 ± 0.29	–
m1 = 0.09942	825.796 ± 0.29	821.081 ± 0.29	816.346 ± 0.29	811.597 ± 0.29	806.83 ± 0.29	802.029 ± 0.29	797.22 ± 0.29	1108.7 ± 1.1
m1 = 0.1123	829.125 ± 0.29	824.405 ± 0.29	819.663 ± 0.29	814.91 ± 0.29	810.139 ± 0.29	805.341 ± 0.29	800.51 ± 0.29	1109.7 ± 1.2
m1 = 0.1401	836.397 ± 0.3	831.665 ± 0.3	826.908 ± 0.3	822.143 ± 0.3	817.357 ± 0.3	812.546 ± 0.3	807.7 ± 0.3	1111.7 ± 1.2
m1 = 0.1665	843.399 ± 0.3	838.652 ± 0.3	833.885 ± 0.3	829.105 ± 0.3	824.3 ± 0.3	819.488 ± 0.3	814.642 ± 0.3	1113.2 ± 1.2
m1 = 0.1922	850.26 ± 0.3	845.49 ± 0.3	840.721 ± 0.3	835.928 ± 0.3	831.119 ± 0.3	826.278 ± 0.3	821.422 ± 0.3	1115.2 ± 1.2
m1 = 0.2169	856.95 ± 0.3	852.176 ± 0.3	847.385 ± 0.3	842.583 ± 0.3	837.763 ± 0.3	832.919 ± 0.3	828.046 ± 0.3	1116.9 ± 1.2
m1 = 0.2417	863.79 ± 0.3	859.009 ± 0.3	854.206 ± 0.3	849.387 ± 0.3	844.546 ± 0.3	839.692 ± 0.3	834.813 ± 0.3	1118.6 ± 1.2
